Results as given in a melting point compilation (Tetko et al.; mined from patent text by program, amines drawn as free bases though some values may be those of a salt).

First: COC(=O)C=CC(=O)c1cc(F)ccc1N
Second: COC(=O)c1ccc(I)cc1N
The melting point of the first is higher: 80 to 84 °C for the first, 63 to 67 °C for the second.

First: CNc1nc(SC)ncc1C=O
Second: CCN1c2ncc(Cc3cccc(F)c3)cc2C(=O)N(C)c2ccc(Cl)nc21
The melting point of the first is lower: 98 to 100 °C for the first, 104 to 105 °C for the second.

First: CNC(=O)c1cccc(NC(=O)Cc2cccc(OCc3ccccc3)c2)c1
Second: CCC(=O)CCCCCCC(=O)c1ccc(OCc2ccccc2)c(OCc2ccccc2)c1
The melting point of the first is higher: 150 °C for the first, 67 to 68 °C for the second.

Compared with `COc1ccc(OCc2ccc3ccccc3n2)cc1C1(c2ccccc2)CC2CCC1C2` (stereo unspecified), `c1ccc(C2CN(CCCc3cccnc3)Cc3c2[nH]c2ccccc32)cc1` (stereo unspecified) is higher in melting point: 138 to 139 °C for the first, 204 to 206 °C for the second.

First: O=C(Cn1c(-c2ccccc2)ncc(NS(=O)(=O)c2ccccc2)c1=O)NC(Cc1ccccc1)C(=O)C(F)(F)F (stereo unspecified)
Second: O=C1c2ccccc2C(=O)N1CCCCc1ccccc1
The melting point of the first is higher: 92 to 94 °C for the first, 87 to 90 °C for the second.

Compared with `Cc1cc2[nH]cc(CSCCN3CC=C(c4ccccc4)CC3)c2cc1C`, `COc1ccc2c(c1OC)CN(Cc1ccccc1)CCc1cc3c(cc1CC2)OCO3` is lower in melting point: 123 to 124 °C for the first, 75 to 78 °C for the second.

First: CCCCCC(CC(=O)Nc1cc(CCCNC(N)=O)ccc1C(C)(C)C)c1ccc(OC)cc1OC (stereo unspecified)
Second: COc1cccc(-c2cc(=O)c3cccc(C(=O)Nc4ccc(CCCCN5CCc6cc(OC)c(OC)cc6C5)cc4)c3o2)c1
The melting point of the first is lower: 125 °C for the first, 152 °C for the second.

First: Cc1c(Cl)ccc(C(=O)c2cnn(C)c2O)c1Cl
Second: COc1ccc2c(O)c(CO)cnc2c1
The melting point of the first is lower: 131 to 135 °C for the first, 291 to 297 °C for the second.

First: N/C(=C1/Sc2ccccc2C1=O)c1ccccc1[N+](=O)[O-]
Second: COc1on(C)c(=O)c1-c1ccccc1COc1ccccc1C
The melting point of the first is higher: 185 to 186 °C for the first, 90 to 92 °C for the second.

First: CC1(CBr)SC2C(NC(=O)Cc3ccccc3)C(=O)N2C1C(=O)OCC(Cl)(Cl)Cl (stereo unspecified)
Second: CCOC(=O)CON1C(=O)C(=O)N(c2ccccc2SC)C1=S
The melting point of the first is lower: 90 to 93 °C for the first, 112 to 114 °C for the second.

First: Cc1cc(-c2ccc(Cl)cc2)nc(-c2ccnc(-c3ccc(S(N)(=O)=O)s3)c2)n1
Second: CCc1ccc(-n2nc(Cl)cc2-c2ccc(S(C)(=O)=O)cc2)cc1[N+](=O)[O-]
The melting point of the first is higher: 232 °C for the first, 134 to 135 °C for the second.

First: O=C1Nc2ccc(-c3ccc(F)c(Cl)c3)cc2C12CCCC2
Second: COC(=O)c1ccc(-c2nc(-c3ccc4c(c3)C(C)(C)CCC4(C)C)co2)cc1
The melting point of the first is lower: 202 to 204 °C for the first, 207 to 208 °C for the second.

Compared with `CCCCCCCCC(CO)CO`, `CCCCn1cc2c(n1)c(N)nc1ccccc12` is higher in melting point: 48 to 51 °C for the first, 194 to 195 °C for the second.

First: Cn1cc(-c2ccccc2)c(=O)c(-c2cccc(Cl)c2)c1
Second: Cc1nc(N(C)Cc2ccco2)c2nc(-c3ccccc3)cc-2[nH]1
The melting point of the first is higher: 172 °C for the first, 168 to 169 °C for the second.

Compared with `CC(C)c1ccccc1Nc1nc(N)nc2c1-c1ccccc1C2`, `Nc1cc2nc(O)c(O)nc2c2ccccc12` is higher in melting point: 193 to 195 °C for the first, greater than 300 °C for the second.

First: O=C(O)CC1C=CC=CC1=NOC(=O)C(Cl)Cl (stereo unspecified)
Second: Cc1nc2cccc(OCC(C)(C)C(=O)NCC3CCC3)c2c(N)c1C(=O)O
The melting point of the first is lower: 115 °C for the first, 170 to 172 °C for the second.

First: O=c1c2cc(Br)ccc2nc(CSc2ncnc3[nH]cnc23)n1-c1ccccc1Cl
Second: COc1ccc2c(-c3ccc(OCCN4CCOCC4)cc3)c(Cc3ccc(Cl)cc3)oc2c1
The melting point of the first is higher: 212 to 242 °C for the first, 126 to 128 °C for the second.

First: CN(C)Cc1ccc(CSCCNC2=NS(=O)(=O)N=C2N)o1
Second: CC1(N)CN(c2c(F)c(N)c3c(=O)c(C(=O)O)cn(C4CC4)c3c2F)C1
The melting point of the first is lower: 156 to 158 °C for the first, 243 to 247 °C for the second.

Compared with `C=C(C)C(=O)NOC(=O)C(=C)C`, `COc1cc2cc(C(=O)O)sc(=O)c2cc1OC` is higher in melting point: 55 °C for the first, 306 to 307 °C for the second.

Compared with `CCc1ccc2[nH]c(SCC(F)(F)F)nc2c1`, `O=C1CCN(Cc2cccnc2)C(=O)C1` is lower in melting point: 127 to 129 °C for the first, 55 to 60 °C for the second.

In the case of `O=C(Nc1ccc(Oc2ccccc2)cc1)Nc1sccc1C(=O)O`, the melting point is reported as 195 to 198 °C.
